Reference: patent US6015560A, “Antibody recognizing endothelial cell ligand for leukocyte CR3” (priority 1995, dated 2000)

Experiments:
[1] = test system: human umbilical vein endothelial cells; test: Adherence of neutrophils to cultured (TNF-stimulated) endothelial cells; format: cell-based
Procedure, shortened: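 Confluent HUVEC monolayers stimulated with 10 ng/ml TNF alpha for 4 h at 37 °C; fluorescein-labelled human neutrophils preincubated 15 min with peptides (0.5 mM in HAP, stock) or HAP buffer, then allowed to adhere 15 min at 37 °C. Adherent cells counted microscopically, expressed as percent of HAP-only control.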

neutrophils = test: Transendothelial migration of neutrophils; format: cell-based, human; conditions: native FHA 1 μM
Procedure, shortened: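 CFSE-labelled human neutrophils (10^6/ml) pre-incubated 5 min on ice with peptides (0.01 mM) or native FHA (1 μM), then placed on TNF-alpha-stimulated (10 ng/ml, 4 h) HUVEC monolayers on collagen/fibronectin for 1 h at 37 °C. Transmigrated cells measured by fluorescence relative to cell-free wells; inhibition calculated versus M199-only neutrophils set at 100% migration.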

C3bi = test: Inhibition of binding of 12.1F9 to E-C3bi by peptides; parameters: species or system human
From the text: The antibody 12.1F9 maps to the region 1279-2011 of FHA. When the derived amino acid sequence of this region was compared to that of C3, a region of 11 amino acids with similar sequence was found between FHA residues 1408-1418 and C3 residues 1187-1197 (Table 14). […] However, the FHA-20-mer and the homologous C3-derived peptide blocked binding by up to 60%.

filamentous hemagglutinin [native FHA]
reduction of neutrophil binding to HUVEC ([1]; 25 μg/ml=0.3 μM): 51±8% | inhibition of adherence of neutrophils to cultured endothelial cells ([1]; 50 ug/ml, 0.2 uM): 51±7% | maximal inhibition of neutrophil attachment ([1]; concentration dependence): ~ 50% | % Inhibition of TEM (neutrophils): 82±1% | % Inhibition of TEM (neutrophils; listed as FHA): 82 ± 1% | % Inhibition of TEM (neutrophils; listed as Intact FHA): 82±1% | block of binding of 12.1F9 to C3bi (in words) (C3bi): blocked binding almost completely | Adherence index (C3bi; peptides 50 μg/ml, normalized to a control value of 100): 16 ± 16
